Laboratory results published in patent US20050037097A1, “PYRUVATE ENRICHED ONION EXTRACT” (priority 2003, published 2005).

Tests used:
[1] = Oxygen radical absorbance capacity (ORAC), β-carotene retention; format: biochemical; settings: concentration was 0.005 mg/mL (footnote); PBS control 28
Procedure: A solution of 2,2′-azobis-(2-amidinopropane) dihydrochloride (AAPH, 0.5 M) was prepared in degassed distilled water and a β-carotene solution was prepared by centrifuging 10 mg of β-carotene in 10 mL of acetone followed by a one-fold dilution of the supernatant with the same solvent. β-carotene (60 μL) and 0.6% (w/v) phosphate buffered Tween 20 containing 0.3% (w/v) of linoleic acid (120 μL) were mixed with 935 μL of PBS in a quartz cuvette and incubated for 2 min at 50° C. 10 μL of sample solution (final assay concentration of 454 μg/mL) and AAPH (25 μL) were added into the cuvette and the reaction was monitored for 10 min using a spectrophotometer set at 452 nm. Quercetin was used as a reference antioxidant. Cuvette was maintained at 50° C. all times except when the measurement is being taken. Percentage β-carotene retention was calculated using the following equation: % β-carotene retention=100−[(Abs0 min−Abs5 min)*100 Abs0 min]

[2] = Inhibition (%) of ABTS radical generation; format: biochemical; settings: concentration was 0.005 mg/mL (footnote)
Procedure: All reagents used in this assay were prepared in phosphate buffered saline (PBS, 10 mM, pH 7.4). Sample solutions were prepared in PBS.
[…] Reaction was triggered by the addition of 120 μL of 10 mM hydrogen peroxide. Absorbance data of the reaction mixture were recorded after 10 min using a spectrophotometer set at 734 nm. Quercetin was used as a reference antioxidant.

[3] = Total reducing power (pre-formed ABTS radical); format: biochemical; settings: concentration was 0.005 mg/mL (footnote)
Procedure: ABTS radical was generated by mixing 5 mL of an aqueous ABTS solution (7 mM) and 88 μL of a potassium persulfate solution (140 mM), followed by the standing in the dark for 6 h. This stock solution (1.1 mL) was diluted to 90 mL with PBS (pH 7.4) and the absorbance adjusted to 0.83. […] Absorbance at 734 nm was measured after 10 min. Quercetin was used as a reference antioxidant. Total reducing power (TRP, %) was calculated using the following equations: […]+PBS(%)=[(Abs0 min-Abs10 min)/Abs0 min]*100 TRPSample=([…]

[4] = Stability determination of pyruvate (pyruvate loss with or without hydrogen peroxide); format: physicochemical

| pyruvate loss ([4]; with added hydrogen peroxide) | pyruvate loss ([4]; without added hydrogen peroxide) | Compound | % TRP (ORAC in terms of β-Carotene retention) [1] | % inhibition of ABTS radical generation [2] | % TRP (total reducing power) [3] |
| --- | --- | --- | --- | --- | --- |
|  |  | O=c1c(O)c(-c2ccc(O)c(O)c2)oc2cc(O)cc(O)c12 [Quercetin] | 55% | 23% | 30% |
| 11% | 26% | CC(=O)C(=O)O [pyruvic acid] |  |  |  |
